pIC50: −log10 of the molar value. Converted amounts (≈) assume the structure as drawn.
Experiments:
[1] = system: Mycobacterium tuberculosis; assay: Antitubercular activity against XDR Mycobacterium tuberculosis; assay type: functional
[2] = Inhibition of Mycobacterium tuberculosis isocitrate lyase
[3] = system: Mycobacterium tuberculosis; assay: Antimycobacterial activity against Mycobacterium tuberculosis H37Rv assessed as reduction in bacterial cell growth by resazurin reduction method; assay type: functional

Molecule: CC(=O)NC[C@H]1CN(c2ccc(N3CCOCC3)c(F)c2)C(=O)O1 [LINEZOLID]
- MIC [1]: 0.125 mg/L (≈ 0.371 µM)

Molecule: O=c1c(O)c(-c2ccc(O)c(O)c2)oc2cc(O)cc(O)c12 [QUERCETIN]
- pIC50 [2]: 5.45

Molecule: H-GWLDVAKKIGKAAFNVAKNFI-OH
- MIC [1]: < 0.97 mg/L
- MIC [3]: < 0.98 mg/L
